This is an account of results in PubChem BioAssay (NCI).

Each structure is given as a SMILES string.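 Cells were grown in 96-well plates and exposed to each compound for 48 hours at five concentrations; endpoints were interpolated linearly between bracketing concentrations, or set to the highest concentration if not reached. GI50 marks 50% less growth. The concentration for full growth arrest is given as TGI.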 A value given as a limit tells only on which side of the number the result lay.

Test systems include HOP-62 NSCLC; MALME-3M melanoma; A549 NSCLC; NCI/ADR-RES ovarian; UO-31 renal; SF-539 CNS; MOLT-4 leukemia; MDA-MB-231 breast; CCRF-CEM leukemia; SK-MEL-2 melanoma.
Common to all, as to assay: DTP human tumour cell line panel, 48 h

By GI50 is commonly meant the concentration that inhibits growth by half. A word on the TGI: it is the concentration giving total growth inhibition. As for `CC(N)(Cc1c[nH]c2cccc(F)c12)C(=O)O` (centres undefined), the GI50 with HOP-62 NSCLC was 645 µM; in the assay on MALME-3M melanoma, > 1000 µM; in the assay with A549 NSCLC it was > 1000 µM; in the assay on NCI/ADR-RES ovarian, > 1000 µM; in the assay with UO-31 renal, 138000 nM; with SF-539 CNS, > 1000 µM. The GI50 in the assay with MOLT-4 leukemia, with MDA-MB-231 breast and in the assay with CCRF-CEM leukemia was > 1000 µM throughout. For the same compound, the TGI in the assay with HOP-62 NSCLC, with MALME-3M melanoma, with A549 NSCLC, in the assay on NCI/ADR-RES ovarian, in the assay with UO-31 renal and in the assay on SF-539 CNS was > 1000 µM throughout. Also, the TGI in the assay on MOLT-4 leukemia, with MDA-MB-231 breast and in the assay on CCRF-CEM leukemia was > 1000 µM each time.

Take `COc1cccc(CC(C)=C(c2ccc(OCCN3CCCCC3)cc2)c2ccc(OCCN3CCCCC3)cc2)c1`: the GI50 is 2.08 µM in the assay with HOP-62 NSCLC; 1.84 µM with MALME-3M melanoma; 2.2 µM with A549 NSCLC; 2.1 µM in the assay with NCI/ADR-RES ovarian; 2.73 µM with SK-MEL-2 melanoma; 1840 nM with UO-31 renal. Moreover, the GI50 with SF-539 CNS was 2.11 µM; in the assay with MOLT-4 leukemia, 1.5 µM; in the assay on MDA-MB-231 breast, 1.92 µM; with CCRF-CEM leukemia, 1.71 µM. Moreover, the TGI came to 4.21 µM in the assay on HOP-62 NSCLC; 3.81 µM with MALME-3M melanoma; 4.35 µM in the assay on A549 NSCLC; 4.34 µM in the assay on NCI/ADR-RES ovarian; 5.71 µM with SK-MEL-2 melanoma; 3.66 µM in the assay on UO-31 renal. For the same compound, the TGI in the assay on SF-539 CNS was 4.11 µM; in the assay with MOLT-4 leukemia, 4.01 µM; in the assay on MDA-MB-231 breast, 4.02 µM; in the assay on CCRF-CEM leukemia, 4.73 µM.

With `COc1cc(/C=C/C(=O)/C=C/c2ccc(-n3ccnc3C)cc2)ccc1O`, the GI50 in the assay with HOP-62 NSCLC is 3.18 µM; in the assay with MALME-3M melanoma, 4.63 µM; in the assay on A549 NSCLC, 3.22 µM; with NCI/ADR-RES ovarian it was 14.5 µM; with SK-MEL-2 melanoma it was 26 µM; in the assay on UO-31 renal, 1510 nM. Also, the GI50 in the assay on SF-539 CNS was 2.19 µM; with MOLT-4 leukemia, 4.05 µM; in the assay with MDA-MB-231 breast it was 2.87 µM; in the assay on CCRF-CEM leukemia it was 4.07 µM. Also, the TGI with HOP-62 NSCLC was 10.5 µM; in the assay with MALME-3M melanoma, 30.5 µM; in the assay with A549 NSCLC it was > 100 µM; with NCI/ADR-RES ovarian it was > 100 µM; with SK-MEL-2 melanoma, 84.2 µM; with UO-31 renal, 3.15 µM. Also, the TGI with SF-539 CNS was 5.53 µM; in the assay on MOLT-4 leukemia, > 100 µM; with MDA-MB-231 breast, 9.03 µM; in the assay with CCRF-CEM leukemia, > 100 µM.

`OC(COC(c1ccccc1)(c1ccccc1)c1ccccc1)C(O)CC1SCCS1` (centres undefined): the TGI in the assay on HOP-62 NSCLC is 30.7 µM; with MALME-3M melanoma, 26.3 µM; in the assay on NCI/ADR-RES ovarian it was 52.9 µM; with SK-MEL-2 melanoma, 34.3 µM; with UO-31 renal it was 24.5 µM; in the assay with SF-539 CNS it was 43.8 µM. Besides, the TGI with MOLT-4 leukemia was 68.7 µM; in the assay with MDA-MB-231 breast it was 35.2 µM; with CCRF-CEM leukemia it was > 100 µM.

Consider `O=C(CCCN1CCC(O)(c2ccc(Cl)cc2)CC1)c1ccc(F)cc1`, for which the TGI is > 100 µM with HOP-62 NSCLC; 36.2 µM with MALME-3M melanoma; > 100 µM with A549 NSCLC; 88.8 µM in the assay with NCI/ADR-RES ovarian; 39.5 µM with SK-MEL-2 melanoma; 45.8 µM in the assay with UO-31 renal. Further, the TGI with SF-539 CNS is 60.3 µM; in the assay with MOLT-4 leukemia, > 100 µM; in the assay on MDA-MB-231 breast, 51.5 µM; with CCRF-CEM leukemia it was > 100 µM.

Consider `Cc1ccc(/C=N/Nc2nc(Nc3ccccc3)nc(-n3nc(C)cc3C)n2)cc1`, for which the GI50 in the assay with HOP-62 NSCLC is 5.27 µM; in the assay with MALME-3M melanoma, 4.21 µM; in the assay with A549 NSCLC it was 4.19 µM; with NCI/ADR-RES ovarian, 2.53 µM; in the assay on SK-MEL-2 melanoma, 5.72 µM; with UO-31 renal it was 4090 nM. For the same compound, the GI50 with SF-539 CNS is 4.5 µM; in the assay on MOLT-4 leukemia, 2.4 µM; in the assay with MDA-MB-231 breast, 6.44 µM; in the assay with CCRF-CEM leukemia, 3.72 µM. In addition, the TGI with HOP-62 NSCLC came to 29.2 µM; in the assay on MALME-3M melanoma, 26.8 µM; with A549 NSCLC, 35.7 µM; in the assay on NCI/ADR-RES ovarian, 8.67 µM; with SK-MEL-2 melanoma, 27 µM; with UO-31 renal, 19.7 µM. Also, the TGI was 25.1 µM in the assay on SF-539 CNS, 8.53 µM in the assay on MOLT-4 leukemia, > 100 µM in the assay with MDA-MB-231 breast and > 100 µM in the assay on CCRF-CEM leukemia.

`CC1=C2[C@@H](CC1)[C@]1(C)O[C@@](C(C)C)(C[C@H]1OC(=O)CO)[C@H]2OC(=O)C1CC1c1ccccc1` (some centres undefined): the GI50 was 15.2 µM in the assay with HOP-62 NSCLC; 16.5 µM with MALME-3M melanoma; 11.9 µM in the assay with A549 NSCLC; 8.95 µM in the assay with NCI/ADR-RES ovarian; 15.5 µM in the assay on SK-MEL-2 melanoma; 9490 nM in the assay on UO-31 renal. Further, the GI50 is 17.1 µM with SF-539 CNS, 9.73 µM in the assay with MOLT-4 leukemia, 15.5 µM with MDA-MB-231 breast and 16.2 µM with CCRF-CEM leukemia. Further, the TGI with HOP-62 NSCLC was 29.7 µM; in the assay on MALME-3M melanoma it was 33.4 µM; in the assay with A549 NSCLC, 25.9 µM; with NCI/ADR-RES ovarian, 30.8 µM; in the assay on SK-MEL-2 melanoma it was 32.3 µM; with UO-31 renal it was 25.1 µM. The TGI in the assay on SF-539 CNS was 33.8 µM; in the assay on MOLT-4 leukemia, 28.8 µM; in the assay with MDA-MB-231 breast it was 33.7 µM; with CCRF-CEM leukemia, 39.1 µM.

On to `COc1ccc2c(c1)c(-c1nc(-c3c[nH]c4ccncc34)cs1)cn2C`, for which the GI50 with HOP-62 NSCLC is 1.82 µM; in the assay on MALME-3M melanoma, 1.74 µM; in the assay on A549 NSCLC, 1.87 µM; with NCI/ADR-RES ovarian, 1.76 µM; in the assay on SK-MEL-2 melanoma, 1.84 µM; in the assay with UO-31 renal, 1580 nM. The GI50 in the assay with SF-539 CNS is 1.65 µM; in the assay with MDA-MB-231 breast, 1.45 µM; in the assay on CCRF-CEM leukemia, 1.83 µM. Further, the TGI in the assay on HOP-62 NSCLC was determined as 3.45 µM; in the assay on MALME-3M melanoma, 3.28 µM; in the assay on A549 NSCLC it was 3.46 µM; in the assay on NCI/ADR-RES ovarian, 3.38 µM; in the assay with SK-MEL-2 melanoma it was 3.4 µM; with UO-31 renal, 2.97 µM. Further, the TGI came out at 3.09 µM in the assay on SF-539 CNS, 2.95 µM in the assay on MDA-MB-231 breast and 3.64 µM with CCRF-CEM leukemia.

Regarding `O=C(/C=C\c1ccc([N+](=O)[O-])cc1)c1ccccc(=O)c1O`, the TGI turned out to be 15.5 µM in the assay on HOP-62 NSCLC; 3.08 µM with MALME-3M melanoma; 11.9 µM with A549 NSCLC; 2.97 µM in the assay with NCI/ADR-RES ovarian; 6.93 µM in the assay with SK-MEL-2 melanoma; 3.3 µM in the assay with UO-31 renal. Also, the TGI is > 21.8 µM in the assay with MOLT-4 leukemia, 17.1 µM in the assay on MDA-MB-231 breast and 0.532 µM with CCRF-CEM leukemia.
